In brackets after ≈: the same amount, converted by molar mass. Like-named read-outs stand apart in the source and are kept apart here.
Legend:
[1] = Solubility of clozapine in different pH medium; format: physicochemical
[2] = Solubility of clozapine in organic acid and Vitamin E-TPGS + organic acid combination
[3] = Solubility of clozapine in solvent; format: physicochemical; details: organic solvent or mixture

- solubility (Bile extract 1% w/v surfactant solution, aqueous with cosolvent or surfactant or cyclodextrin): 941 µg/mL (≈ 2880 µM)
- solubility (Brij 700 1% w/v surfactant solution, aqueous with cosolvent or surfactant or cyclodextrin): 336 µg/mL (≈ 1030 µM)
- solubility (Cremphor A25 1% w/v surfactant solution, aqueous with cosolvent or surfactant or cyclodextrin): 506 µg/mL (≈ 1550 µM)
- solubility (Cremphor A-6 1% w/v surfactant solution, aqueous with cosolvent or surfactant or cyclodextrin): 11.5 µg/mL (≈ 35.2 µM)
- solubility (Cremphor RH 40 1% w/v surfactant solution, aqueous with cosolvent or surfactant or cyclodextrin): 115 µg/mL (≈ 351 µM)
- solubility (Labrasol 1% w/v surfactant solution, aqueous with cosolvent or surfactant or cyclodextrin): 70.6 µg/mL (≈ 216 µM)
- solubility (Lutrol F-68 1% w/v surfactant solution, aqueous with cosolvent or surfactant or cyclodextrin): 15.3 µg/mL (≈ 46.8 µM)
- solubility (PEG 400 1% w/v surfactant solution): 30.9 µg/mL (≈ 94.6 µM)
- solubility (PEG 600 1% w/v surfactant solution): 29.7 µg/mL (≈ 90.8 µM)
- solubility (PEG distearate 1% w/v surfactant solution, aqueous with cosolvent or surfactant or cyclodextrin): 952 µg/mL (≈ 2910 µM)
- solubility (PEG-diolaurate 1% w/v surfactant solution, aqueous with cosolvent or surfactant or cyclodextrin): 104 µg/mL (≈ 320 µM)
- solubility (PEG-monolaurate 1% w/v surfactant solution, aqueous with cosolvent or surfactant or cyclodextrin): 372 µg/mL (≈ 1140 µM)
- solubility (Sodium Dodecylate Sulfate (SDS) 1% w/v surfactant solution, aqueous with cosolvent or surfactant or cyclodextrin): 1140 µg/mL (≈ 3480 µM)
- solubility (Sodium desoxycholate 1% w/v surfactant solution, aqueous with cosolvent or surfactant or cyclodextrin): 342 µg/mL (≈ 1050 µM)
- solubility (Solutol HS15 1% w/v surfactant solution, aqueous with cosolvent or surfactant or cyclodextrin): 344 µg/mL (≈ 1050 µM)
- solubility (Span 20 1% w/v surfactant solution, aqueous with cosolvent or surfactant or cyclodextrin): 16.1 µg/mL (≈ 49.4 µM)
- solubility (Tween 20 1% w/v surfactant solution, aqueous with cosolvent or surfactant or cyclodextrin): 158 µg/mL (≈ 485 µM)
- solubility (Tween 80 1% w/v surfactant solution, aqueous with cosolvent or surfactant or cyclodextrin): 399 µg/mL (≈ 1220 µM)
- solubility ([1]; DI water, water): 11.8 µg/mL (≈ 36.1 µM)
- Solubility (pH dependent behavior) ([1]; low pH regions): fairly good solubility
- solubility ([1]; pH 1.5 medium, pH 1.5, simulated gastric fluid): 712 µg/mL (≈ 2180 µM)
- solubility ([1]; pH 7.5 medium, pH 7.5, aqueous buffer): 30.7 µg/mL (≈ 93.9 µM)
- Solubility (pH dependent behavior) ([1]; pH beyond 5): low solubility
- solubility ([2]; Alginic acid 1% w/v, aqueous buffer): 9.99 µg/mL
- solubility ([2]; Ascorbic acid 1% w/v, aqueous buffer): 259 µg/mL
- solubility ([2]; Citric acid (0.1M), aqueous buffer): 35400 µg/mL
- solubility ([2]; Fumaric acid (0.01M), aqueous buffer): 8880 µg/mL
- solubility ([2]; Oleinic acid 1% w/v, aqueous with cosolvent or surfactant or cyclodextrin): 9.86 µg/mL
- Solubility of Clozapine in Organic Acid ([2]; Stearic acid 1% w/v): Form conjugated compound
- solubility ([2]; Succinic acid (0.05M), aqueous buffer): 25700 µg/mL
- solubility ([3]; 2-pyrrolidinone (Soluphor-P)): > 250000 µg/mL
- solubility ([3]; N-methyl-2-pyrrolidinone (NMP)): > 300000 µg/mL
Structure (SMILES): CN1CCN(C2=Nc3cc(Cl)ccc3Nc3ccccc32)CC1 [Clozapine, clozapine]
